IC50 data for 13 compounds are collected here from US12059422B2 (MEI Pharma, Inc., priority 2011, dated 2024).

The structures appear in SMILES notation.

Chain of PI3Kα (P27986 2-724): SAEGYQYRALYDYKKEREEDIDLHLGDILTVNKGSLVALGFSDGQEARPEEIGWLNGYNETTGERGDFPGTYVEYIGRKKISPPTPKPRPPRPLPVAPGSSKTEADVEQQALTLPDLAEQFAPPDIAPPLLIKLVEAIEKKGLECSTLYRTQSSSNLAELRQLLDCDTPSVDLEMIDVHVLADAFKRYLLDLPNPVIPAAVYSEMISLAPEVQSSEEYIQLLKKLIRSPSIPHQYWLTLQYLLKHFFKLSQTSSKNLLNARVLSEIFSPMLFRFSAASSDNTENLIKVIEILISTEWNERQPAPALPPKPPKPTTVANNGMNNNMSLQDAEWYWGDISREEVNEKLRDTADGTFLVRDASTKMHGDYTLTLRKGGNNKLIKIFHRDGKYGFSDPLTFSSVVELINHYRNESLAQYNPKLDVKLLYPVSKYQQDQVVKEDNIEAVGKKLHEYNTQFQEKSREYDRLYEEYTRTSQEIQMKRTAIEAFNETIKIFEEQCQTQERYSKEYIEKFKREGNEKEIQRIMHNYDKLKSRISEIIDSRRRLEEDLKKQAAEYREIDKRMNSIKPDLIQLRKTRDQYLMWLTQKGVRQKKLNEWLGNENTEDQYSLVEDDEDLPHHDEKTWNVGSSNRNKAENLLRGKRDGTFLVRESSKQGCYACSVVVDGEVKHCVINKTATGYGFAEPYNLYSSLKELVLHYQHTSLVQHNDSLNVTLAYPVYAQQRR
Chain of PI3Kα (P42336 whole entry): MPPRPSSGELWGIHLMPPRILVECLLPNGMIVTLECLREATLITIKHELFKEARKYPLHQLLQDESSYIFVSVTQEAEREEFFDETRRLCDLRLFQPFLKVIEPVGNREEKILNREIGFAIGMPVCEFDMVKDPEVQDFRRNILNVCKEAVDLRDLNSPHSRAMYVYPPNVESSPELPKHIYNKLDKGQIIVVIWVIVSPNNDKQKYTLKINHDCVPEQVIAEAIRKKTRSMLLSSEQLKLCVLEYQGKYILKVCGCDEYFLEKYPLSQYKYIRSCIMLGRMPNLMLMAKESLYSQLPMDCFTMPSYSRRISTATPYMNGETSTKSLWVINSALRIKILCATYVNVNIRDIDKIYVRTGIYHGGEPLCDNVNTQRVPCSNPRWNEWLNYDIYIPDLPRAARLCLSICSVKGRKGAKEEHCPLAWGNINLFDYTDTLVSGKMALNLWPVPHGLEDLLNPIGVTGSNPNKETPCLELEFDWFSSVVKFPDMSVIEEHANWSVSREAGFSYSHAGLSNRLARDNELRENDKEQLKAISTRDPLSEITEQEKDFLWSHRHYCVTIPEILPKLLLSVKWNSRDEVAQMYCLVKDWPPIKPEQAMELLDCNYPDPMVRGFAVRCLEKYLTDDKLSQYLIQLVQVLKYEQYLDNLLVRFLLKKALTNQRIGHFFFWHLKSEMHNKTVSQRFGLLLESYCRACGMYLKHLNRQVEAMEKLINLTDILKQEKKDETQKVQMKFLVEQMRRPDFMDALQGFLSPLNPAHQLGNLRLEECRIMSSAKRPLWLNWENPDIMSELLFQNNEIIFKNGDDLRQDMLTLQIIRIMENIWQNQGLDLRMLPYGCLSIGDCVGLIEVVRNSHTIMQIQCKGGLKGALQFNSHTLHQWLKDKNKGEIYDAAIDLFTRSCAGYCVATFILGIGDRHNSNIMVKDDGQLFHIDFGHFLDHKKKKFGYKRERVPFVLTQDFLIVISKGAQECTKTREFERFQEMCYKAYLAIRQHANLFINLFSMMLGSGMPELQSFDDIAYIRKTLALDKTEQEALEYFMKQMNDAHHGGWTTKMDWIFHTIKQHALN

The target in the experiment is PI3Kα (Homo sapiens, UniProt P42336). Briefly: ELISA assay for PI3Kα: in-cell ELISA, phosphorylation of AKT (Thr308) in MDA-MB-453 cells. Format: cell-based. As to conditions: cellular, pAKT (Thr308), IGF-1 stimulation, read-out: IC50 p110α. The method, then:
PI3K alpha (PI3Kα) activity was determined by measuring the phosphorylation of AKT (Thr308) using an in-cell ELISA assay. MDA-MB-453 (breast carcinoma) cells were obtained from ATCC (ATCC #HTB-131). Growth medium was DMEM (CellGro #CV-10-013-CV) supplemented with 10% fetal bovine serum, 100 IU/mL penicillin, 100 μg/mL streptomycin, and 1×MEM non-essential amino acids. Phosphate buffered saline (PBS) contained 2.7 M NaCl, 54 mM KCl, 86 mM […] (dibasic, anhydrous), and 28 mM […] (monobasic, anhydrous) at pH 7.2. Stimulation mixture (10×) was 1000 ng/mL LONG® R^3 human IGF-1 (Sigma #I1271) diluted in serum-free DMEM medium (CellGro #CV-10-013-CV). Compounds for testing were dissolved and serially diluted in 100% DMSO (total of 10 concentrations), then diluted in serum-free DMEM to 2× final assay concentration. Fixative solution (2×) was 8% formaldehyde (Amresco #M134) diluted in PBS. Permeabilization solution was PBS supplemented with 0.1% Triton X-100. Blocking buffer was obtained from LiCor (LiCor #927-40000). Wash buffer was PBS supplemented with 0.1% Tween-20. Primary antibody solution was rabbit anti-pAKT^T308 monoclonal antibody (Cell Signaling #2965) and mouse anti-total S6 (Santa Cruz #74459) diluted 1:500 and 1:2000, respectively, in the blocking buffer. Secondary antibody solution was IRDye 800CW-conjugated goat anti-rabbit IgG (LiCor #926-32211) and IRDye 680LT-conjugated goat anti-mouse IgG (LiCor #926-68020) diluted 1:1000 and 1:2000, respectively, in the blocking buffer.
MDA-MB-453 cells were subcultured in growth medium and seeded into flat, clear bottom, 96-well plates (Corning #3904) at 40000 cells/well, then incubated overnight in a 5% CO2 incubator at 37° C. Growth medium in plates was replaced with 100 μL/well serum-free DMEM and incubated overnight at 37° C. in a 5% CO2 incubator. Fresh serum-free DMEM (50 μL/well) was added to plates. Compound treatment was performed by adding 50 μL/well of 2× compound mixture to plates and incubating for 1 hr at 37° C. and 5% CO2, after which 11 μL/well of 10× stimulation mixture was added and plates were incubated for 10 min at 37° C. and 5% CO2. Fixation was performed by adding 110 μL/well of 2× fixative solution to the plates and incubating for 20 min at room temperature. Permeabilization was performed by replacing fixation solution with 150 μL/well permeabilization solution and incubating for 10 min at room temperature. Permeabilization was repeated (for a total of 2 times). Permeabilization solution was replaced with 100 μL/well blocking buffer and plates were incubated for 1 hour at room temperature, after which 100 μL/well of primary antibody solution was added and plates were incubated overnight at 4° C. Plates were washed with wash buffer, after which 100 μL/well of secondary antibody solution was added to the plates and incubated in the dark for 1 hr at room temperature. Plates were washed with wash buffer, followed by a wash with PBS. After completely removing PBS, plates were scanned on the Licor Odyssey Imager. Images were quantified using Licor Odyssey application software. IC50 values were determined by curve fitting using a Collaborative Drug Discovery database (www.collaborativedrug.com).
As to `CC(C)(Cc1ccccc1-c1cncnc1)Nc1nc(N2CCOCC2)nc(-n2c(C(F)F)nc3ccccc32)n1` [Compound A63, 4-(2-(difluoromethyl)-1H-benzo[d]imidazol-1-yl)-N-(2-methyl-1-(2-(pyrimidin-5-yl)phenyl)propan-2-yl)-6-morpholino-1,3,5-triazin-2-amine], the IC50 is greater than 0.5 µM.

In the case of `CN1CCN(c2cc(-c3ccccc3CC(C)(C)Nc3nc(N4CCOCC4)nc(-n4c(C(F)F)nc5ccccc54)n3)ccn2)CC1` [Compound A64, 4-(2-(difluoromethyl)-1H-benzo[d]imidazol-1-yl)-N-(2-methyl-1-(2-(2-(4-methylpiperazin-1-yl)pyridin-4-yl)phenyl)propan-2-yl)-6-morpholino-1,3,5-triazin-2-amine], the IC50 is greater than 0.5 µM. On to `CC(C)(Cc1ccccc1-c1cccc(CN2CCOCC2)c1)Nc1nc(N2CCOCC2)nc(-n2c(C(F)F)nc3ccccc32)n1` [Compound A65, 4-(2-(difluoromethyl)-1H-benzo[d]imidazol-1-yl)-N-(2-methyl-1-(3′-(morpholinomethyl)biphenyl-2-yl)propan-2-yl)-6-morpholino-1,3,5-triazin-2-amine], for which the IC50 is greater than 0.5 µM. The value for `COc1cccc(-c2ccccc2CC(C)(C)Nc2nc(N3CCOCC3)nc(-n3c(C(F)F)nc4ccccc43)n2)c1` [Compound A66, 4-(2-(difluoromethyl)-1H-benzo[d]imidazol-1-yl)-N-(1-(3′-methoxybiphenyl-2-yl)-2-methylpropan-2-yl)-6-morpholino-1,3,5-triazin-2-amine] was greater than 0.5 µM; that for `COc1ccc(-c2ccccc2CC(C)(C)Nc2nc(N3CCOCC3)nc(-n3c(C(F)F)nc4ccccc43)n2)cc1` [Compound A67, 4-(2-(difluoromethyl)-1H-benzo[d]imidazol-1-yl)-N-(1-(4′-methoxybiphenyl-2-yl)-2-methylpropan-2-yl)-6-morpholino-1,3,5-triazin-2-amine] was greater than 0.5 µM.

Regarding `CC(C)(Cc1ccccc1C1CCNCC1)Nc1nc(N2CCOCC2)nc(-n2c(C(F)F)nc3ccccc32)n1` [Compound A68, 4-(2-(difluoromethyl)-1H-benzo[d]imidazol-1-yl)-N-(2-methyl-1-(2-(piperidin-4-yl)phenyl)propan-2-yl)-6-morpholino-1,3,5-triazin-2-amine], the IC50 is greater than 0.5 µM. Under `CCN1CCC(c2ccccc2CC(C)(C)Nc2nc(N3CCOCC3)nc(-n3c(C(F)F)nc4ccccc43)n2)CC1` [Compound A70, 4-(2-(difluoromethyl)-1H-benzo[d]imidazol-1-yl)-N-(1-(2-(1-ethylpiperidin-4-yl)phenyl)-2-methylpropan-2-yl)-6-morpholino-1,3,5-triazin-2-amine] stands greater than 0.5 µM. As to `CC(C)N1CCC(c2ccccc2CC(C)(C)Nc2nc(N3CCOCC3)nc(-n3c(C(F)F)nc4ccccc43)n2)CC1` [Compound A71, 4-(2-(difluoromethyl)-1H-benzo[d]imidazol-1-yl)-N-(1-(2-(1-isopropylpiperidin-4-yl)phenyl)-2-methylpropan-2-yl)-6-morpholino-1,3,5-triazin-2-amine], the IC50 was greater than 0.5 µM. For the compound `CC(=O)N1CCC(c2ccccc2CC(C)(C)Nc2nc(N3CCOCC3)nc(-n3c(C(F)F)nc4ccccc43)n2)CC1` [Compound A72, 4-(2-(difluoromethyl)-1H-benzo[d]imidazol-1-yl)-N-(2-methyl-1-(2-(1-acetylpiperidin-4-yl)phenyl)propan-2-yl)-6-morpholino-1,3,5-triazin-2-amine], the IC50 lay within 0.2 to 0.5 µM. Under `CC(C)(Cc1ccccc1C1CCN(S(C)(=O)=O)CC1)Nc1nc(N2CCOCC2)nc(-n2c(C(F)F)nc3ccccc32)n1` [Compound A73, 4-(2-(difluoromethyl)-1H-benzo[d]imidazol-1-yl)-N-(2-methyl-1-(2-(1-(methylsulfonyl)piperidin-4-yl)phenyl)propan-2-yl)-6-morpholino-1,3,5-triazin-2-amine] stands 0.2 to 0.5 µM; under `CC(C)(Cc1ccccc1C1CCNC1)Nc1nc(N2CCOCC2)nc(-n2c(C(F)F)nc3ccccc32)n1` (stereo not shown) [Compound A74, 4-(2-(difluoromethyl)-1H-benzo[d]imidazol-1-yl)-N-(2-methyl-1-(2-(pyrrolidin-3-yl)phenyl)propan-2-yl)-6-morpholino-1,3,5-triazin-2-amine], greater than 0.5 µM; under `CN1CCC(c2ccccc2CC(C)(C)Nc2nc(N3CCOCC3)nc(-n3c(C(F)F)nc4ccccc43)n2)C1` (stereo not shown) [Compound A75, 4-(2-(difluoromethyl)-1H-benzo[d]imidazol-1-yl)-N-(2-methyl-1-(2-(1-methylpyrrolidin-3-yl)phenyl)propan-2-yl)-6-morpholino-1,3,5-triazin-2-amine], greater than 0.5 µM. The value for `CN(C)CCCc1ccccc1CC(C)(C)Nc1nc(N2CCOCC2)nc(-n2c(C(F)F)nc3ccccc32)n1` [Compound A76, 4-(2-(difluoromethyl)-1H-benzo[d]imidazol-1-yl)-N-(1-(2-(3-(dimethylamino)propyl)phenyl)-2-methylpropan-2-yl)-6-morpholino-1,3,5-triazin-2-amine] was greater than 0.5 µM.
